Experimental data taken from ChEMBL document CHEMBL1146058, “Discovery of trans-3,4'-bispyridinylethylenes as potent and novel inhibitors of protein kinase B (PKB/Akt) for the treatment of cancer: Synthesis and biological evaluation” (Bioorg Med Chem Lett, 2006).
Values belong to the molecule of their own block, whether it stands above or below them.

Tests used:
[1] = target: T1, RAC-alpha serine/threonine-protein kinase (Homo sapiens, UniProt P31749); assay: Inhibition of Akt1 at 5.33 uM
[2] = Cmax in mouse at 10 mg/kg; format: ADME, organism-based; parameters: dose 10 mg/kg; settings: in vivo
[3] = Oral bioavailability in mouse at 10 mg/kg; format: ADME, organism-based; settings: in vivo
[4] = Half life in mouse at 10 mg/kg; format: ADME, organism-based; parameters: dose 10 mg/kg; settings: in vivo
[5] = Volume of distribution in mouse at 10 mg/kg; format: ADME, organism-based; parameters: dose 10 mg/kg; settings: in vivo, read-out: Vdss
[6] = Plasma clearance in mouse at 10 mg/kg; format: ADME, organism-based; parameters: dose 10 mg/kg
[7] = target: T1, RAC-alpha serine/threonine-protein kinase; assay: Inhibition of Akt1 at 50 uM
[8] = Half life in mouse at 30 mg/kg; format: ADME, organism-based; parameters: dose 30 mg/kg; settings: in vivo
[9] = Volume of distribution in mouse at 30 mg/kg; format: ADME, organism-based; parameters: dose 30 mg/kg; settings: in vivo, read-out: Vdss
[10] = Plasma clearance in mouse at 30 mg/kg; format: ADME, organism-based; parameters: dose 30 mg/kg
[11] = Cmax in mouse at 30 mg/kg; format: ADME, organism-based; parameters: dose 30 mg/kg; settings: in vivo
[12] = Oral bioavailability in mouse at 30 mg/kg; format: ADME, organism-based; settings: in vivo
[13] = Half life in dog at 2.5 mg/kg; format: ADME, organism-based, Canis lupus familiaris; parameters: dose 2.5 mg/kg; settings: in vivo
[14] = Volume of distribution in dog at 2.5 mg/kg; format: ADME, organism-based, Canis lupus familiaris; parameters: dose 2.5 mg/kg; settings: in vivo, read-out: Vdss
[15] = Plasma clearance in dog at 2.5 mg/kg; format: ADME, organism-based, Canis lupus familiaris; parameters: dose 2.5 mg/kg
[16] = Cmax in dog at 2.5 mg/kg; format: ADME, organism-based, Canis lupus familiaris; parameters: dose 2.5 mg/kg; settings: in vivo
[17] = Oral bioavailability in dog at 2.5 mg/kg; format: ADME, organism-based, Canis lupus familiaris; settings: in vivo
[18] = Half life in monkey at 2.5 mg/kg; format: ADME, organism-based, Macaca mulatta; parameters: dose 2.5 mg/kg; settings: rhesus monkey, in vivo
[19] = Volume of distribution in monkey at 2.5 mg/kg; format: ADME, organism-based, Macaca mulatta; parameters: dose 2.5 mg/kg; settings: rhesus monkey, in vivo, read-out: Vdss
[20] = Plasma clearance in monkey at 2.5 mg/kg; format: ADME, organism-based, Macaca mulatta; parameters: dose 2.5 mg/kg; settings: rhesus monkey
[21] = Cmax in monkey at 2.5 mg/kg; format: ADME, organism-based, Macaca mulatta; parameters: dose 2.5 mg/kg; settings: rhesus monkey, in vivo
MIA PaCa-2 = assay: Antiproliferative activity against MiaPaCa-2 cells by MTT assay; format: functional, cell-based; settings: Homo sapiens
[22] = Oral bioavailability in monkey at 2.5 mg/kg; format: ADME, organism-based, Macaca mulatta; settings: rhesus monkey, in vivo
[23] = Half life in rat at 5 mg/kg; format: ADME, organism-based; parameters: dose 5 mg/kg; settings: in vivo
[24] = Volume of distribution in rat at 5 mg/kg; format: ADME, organism-based; parameters: dose 5 mg/kg; settings: in vivo, read-out: Vdss
[25] = Plasma clearance in rat at 5 mg/kg; format: ADME, organism-based; parameters: dose 5 mg/kg
[26] = Cmax in rat at 5 mg/kg; format: ADME, organism-based; parameters: dose 5 mg/kg; settings: in vivo
[27] = Oral bioavailability in rat at 5 mg/kg; format: ADME, organism-based; settings: in vivo
[28] = target: T1, RAC-alpha serine/threonine-protein kinase; assay: Inhibition of Akt1 using 10 uM ATP
[29] = target: T1, RAC-alpha serine/threonine-protein kinase; assay: Inhibition of Akt1 at 0.99 uM

T1 sequence (P31749 whole entry): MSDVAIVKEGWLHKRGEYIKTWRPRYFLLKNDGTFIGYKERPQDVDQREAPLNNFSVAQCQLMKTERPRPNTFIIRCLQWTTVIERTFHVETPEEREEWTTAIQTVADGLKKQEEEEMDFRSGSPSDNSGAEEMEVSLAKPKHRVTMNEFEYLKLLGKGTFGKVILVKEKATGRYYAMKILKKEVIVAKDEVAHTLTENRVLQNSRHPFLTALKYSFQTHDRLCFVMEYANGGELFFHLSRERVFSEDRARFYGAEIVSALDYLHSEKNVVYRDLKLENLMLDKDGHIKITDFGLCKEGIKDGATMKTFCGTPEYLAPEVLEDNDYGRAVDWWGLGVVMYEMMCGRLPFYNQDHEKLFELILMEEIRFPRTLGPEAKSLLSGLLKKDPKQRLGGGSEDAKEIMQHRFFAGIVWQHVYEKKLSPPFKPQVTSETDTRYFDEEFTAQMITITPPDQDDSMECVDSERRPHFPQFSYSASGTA

Structure (SMILES): N[C@H](COc1cncc(/C=C/c2ccccc2)c1)Cc1c[nH]c2ccccc12
inhibition [1]: 17%

Structure (SMILES): N[C@H](COc1cccc(/C=C/c2ccncc2)c1)Cc1c[nH]c2ccccc12
inhibition [1]: 35%

Structure (SMILES): N[C@H](CNc1cnc(Cl)c(/C=C/c2ccncc2)c1)Cc1c[nH]c2ccccc12
Cmax [2]: < 20 ng/mL
bioavailability [3]: 0%
half-life [4]: 0.6 h
Vd [5]: 9.5 L/kg
clearance [6]: 190 mL/min/kg

inhibition [7]: 29%
Structure (SMILES): N[C@H](COc1cnccc1/C=C/c1ccncc1)Cc1ccccc1

Structure (SMILES): N[C@H](COc1cncc(/C=C/c2ccncc2)c1)Cc1c[nH]c2ccccc12
half-life [8]: 0.8 h
Vd [9]: 6.5 L/kg
clearance [10]: 95 mL/min/kg
Cmax [11]: 2780 ng/mL
bioavailability [12]: 39%
half-life [13]: 3.2 h
Vd [14]: 12.8 L/kg
clearance [15]: 41.7 mL/min/kg
Cmax [16]: 100 ng/mL
bioavailability [17]: 52%
half-life [18]: 3.7 h
Vd [19]: 9.1 L/kg
clearance [20]: 26.7 mL/min/kg
Cmax [21]: 40 ng/mL
IC50 (MIA PaCa-2): 12 µM
bioavailability [22]: 12%
half-life [23]: 3.1 h
Vd [24]: 5.2 L/kg
clearance [25]: 20 mL/min/kg
Cmax [26]: 300 ng/mL
bioavailability [27]: 21%

IC50 [28]: > 50 µM
Structure (SMILES): C(=C\c1cncc(OCCCc2c[nH]c3ccccc23)c1)/c1ccncc1

Structure (SMILES): N[C@H](COc1cc(/C=C/c2ccncc2)ccn1)Cc1c[nH]c2ccccc12
inhibition [1]: 16%

Structure (SMILES): N[C@H](CCc1cnc(Cl)c(/C=C/c2ccncc2)c1)Cc1c[nH]c2ccccc12
Cmax [2]: 90 ng/mL
bioavailability [3]: < 10%
half-life [4]: 0.2 h
Vd [5]: 4.9 L/kg
clearance [6]: 288 mL/min/kg

half-life [23]: 2.5 h
Vd [24]: 3.6 L/kg
clearance [25]: 16.7 mL/min/kg
Cmax [26]: 620 ng/mL
bioavailability [27]: 43%
Structure (SMILES): N[C@H](COc1cncc(/C=C/c2ccncc2)c1)Cc1csc2ccccc12

inhibition [1]: 11%
Structure (SMILES): N[C@H](COc1cncc(/C=C/c2ccncc2)c1)C(=O)O

Structure (SMILES): N[C@H](COc1cnc(Cl)c(/C=C/c2ccncc2)c1)Cc1c[nH]c2ccccc12
half-life [8]: 0.8 h
Vd [9]: 4.8 L/kg
clearance [10]: 68.3 mL/min/kg
Cmax [11]: 940 ng/mL
bioavailability [12]: 11%
half-life [13]: 5.4 h
Vd [14]: 11.1 L/kg
clearance [15]: 23.3 mL/min/kg
Cmax [16]: 120 ng/mL
bioavailability [17]: 45%
half-life [18]: 3 h
Vd [19]: 4.2 L/kg
clearance [20]: 16.2 mL/min/kg
Cmax [21]: 60 ng/mL
bioavailability [22]: 12%
half-life [23]: 3.1 h
Vd [24]: 9.9 L/kg
clearance [25]: 36.7 mL/min/kg
Cmax [26]: 60 ng/mL
bioavailability [27]: 17%

inhibition [1]: 4%
Structure (SMILES): N[C@H](COc1cncc(/C=C/c2ccncc2)c1)C(=O)Nc1ccc2ccccc2c1

inhibition [29]: 73%
Structure (SMILES): N[C@@H](Cc1c[nH]cn1)C(=O)Nc1cncc(/C=C/c2ccncc2)c1
